Results: PMC4008786, “Molecular Characterization, Expression Pattern, and Ligand-Binding Property of Three Odorant Binding Protein Genes from Dendrolimus tabulaeformis” (Journal of Chemical Ecology, 2014)
Read-outs that look alike come from different tables or passages of the source.

What was measured:
DtabPBP1 [1] = molecular target: T1, DtabPBP1 (Dendrolimus tabulaeformis, UniProt A0A059PCM8); assay: Competitive fluorescence binding assay (displacement of 1-NPN), DtabPBP1
Experimental: (§1) Emission fluorescence spectra were performed on an F-4500 fluorescence Spectrophotometer (Hitachi, Japan) at 25 °C with a 1 cm light path quartz cuvette and 5 nm slits for both excitation and emission. The protein was dissolved in 50 mM Tris–HCl buffer, pH 7.4, while ligands used in the binding assay were added as 1 mM methanol solutions. The fluorescence of the mixture was recorded after 5 min to allow the signal to stabilize.
(§2) To measure the affinity of the fluorescent ligand 1-NPN to DtabPBP1, DtabGOBP1, and DtabGOBP2, a 2 μM solution of the protein in 50 mM Tris–HCl, pH 7.4, was titrated with aliquots of 1 mM 1-NPN dissolved in methanol to a final concentration of 16 μM. The probe was excited at 337 nm, and emission spectra were recorded between 380 and 450 nm. To evaluate the effect of pH on the binding affinity of the three OBPs, we also measured their binding with 1-NPN at a pH range of 4.5–9.0. The displacement of 1-NPN by selected ligands was measured in competitive binding assays using both the protein and 1-NPN at 2 μM. The mixtures were titrated with 1 mM methanol solutions of each competitor over concentration ranges of 2–16 μM. The fluorescence of the mixture was recorded after 5 min. Dissociation constants for 1-NPN and the stoichiometry of binding were obtained from Scatchard plots of the binding data through processing the data with Prism software. For other competitor ligands, the dissociation constants were calculated from the corresponding IC50 values using the equation: Ki = [IC50]/(1 + [1 − NPN]/K1 − NPN), where [1-NPN] is the free concentration of 1-NPN and K1-NPN is the dissociation constant of the protein complex/1-NPN.
(§3) To understand the ligand binding properties of the three OBPs, we prepared the recombinant proteins. Figure S5 reports the expression and purification of them. Then, we performed competitive ligand-binding experiments using well established protocols for other insect OBPs (Ban et al. [2002], [2003b]; Guo et al. [2012]; He et al. [2010]; Zhou et al. [2009]) to investigate the specificity of the binding pocket in the three D. tabulaeformis OBPs. The probe was excited at 337 nm, and emission spectra were recorded between 380 and 450 nm. […] The three proteins DtabPBP1, DtabGOBP1, and DtabGOBP2 bind 1-NPN with dissociation constants 12.5 ± 1.7, 14.4 ± 2.6, and 8.5 ± 0.6, respectively (Fig. 4a).

DtabGOBP1 [2] = molecular target: T2, DtabGOBP1 (Dendrolimus tabulaeformis, UniProt A0A059PCQ9); assay: Competitive fluorescence binding assay (displacement of 1-NPN), DtabGOBP1; conditions: for abnormal fluorescence binding curve (in words): 1-NPN fluorescence on addition of ligand
T2 sequence (A0A059PCQ9 entry or part of it): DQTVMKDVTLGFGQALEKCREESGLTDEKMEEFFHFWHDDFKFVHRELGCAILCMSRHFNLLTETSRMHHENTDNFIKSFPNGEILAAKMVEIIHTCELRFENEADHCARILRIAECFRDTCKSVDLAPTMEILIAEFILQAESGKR
Experimental: as §1, §2, §3

DtabGOBP2 [3] = molecular target: T3, DtabGOBP2 (Dendrolimus tabulaeformis, UniProt A0A059PCR0); assay: Competitive fluorescence binding assay (displacement of 1-NPN), DtabGOBP2
T3 sequence (A0A059PCR0 entry or part of it): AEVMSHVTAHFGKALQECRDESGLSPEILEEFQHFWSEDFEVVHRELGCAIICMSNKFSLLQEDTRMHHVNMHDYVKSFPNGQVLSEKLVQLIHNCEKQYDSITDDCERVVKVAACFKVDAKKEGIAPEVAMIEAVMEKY
Experimental: as §1, §2, §3

DtabPBP1 [4] = molecular target: T1, DtabPBP1; assay: Fluorescence titration of protein with 1-NPN (Scatchard plot), DtabPBP1; format: binding
Experimental: as §1
(§4) To measure the affinity of the fluorescent ligand 1-NPN to DtabPBP1, DtabGOBP1, and DtabGOBP2, a 2 μM solution of the protein in 50 mM Tris–HCl, pH 7.4, was titrated with aliquots of 1 mM 1-NPN dissolved in methanol to a final concentration of 16 μM. The probe was excited at 337 nm, and emission spectra were recorded between 380 and 450 nm. To evaluate the effect of pH on the binding affinity of the three OBPs, we also measured their binding with 1-NPN at a pH range of 4.5–9.0. The displacement of 1-NPN by selected ligands was measured in competitive binding assays using both the protein and 1-NPN at 2 μM. The mixtures were titrated with 1 mM methanol solutions of each competitor over concentration ranges of 2–16 μM. The fluorescence of the mixture was recorded after 5 min. […]
(§5) To understand the ligand binding properties of the three OBPs, we prepared the recombinant proteins. […] The probe was excited at 337 nm, and emission spectra were recorded between 380 and 450 nm. […]

DtabGOBP1 [5] = molecular target: T2, DtabGOBP1; assay: Fluorescence titration of protein with 1-NPN (Scatchard plot), DtabGOBP1; format: binding
Experimental: as §1, §4, §5

DtabGOBP2 [6] = molecular target: T3, DtabGOBP2; assay: Fluorescence titration of protein with 1-NPN (Scatchard plot), DtabGOBP2; format: binding
Experimental: as §1, §4, §5

[7] = DtabPBP1, 1-NPN fluorescence at ligand max conc 16, protein and 1-NPN at 2 μM, pH 7.4
[8] = DtabGOBP1, 1-NPN fluorescence at ligand max conc 16, protein and 1-NPN at 2 μM, pH 7.4
[9] = DtabGOBP2, 1-NPN fluorescence at ligand max conc 16, protein and 1-NPN at 2 μM, pH 7.4
[10] = 2 μM protein, 50 mM Tris–HCl pH 7.4, Scatchard plot, read-out: dissociation constant (Kd) of 1-NPN
[11] = pH 4.5–9.0, protein and 1-NPN at 2 μM
[12] = DtabPBP1, 1-NPN fluorescence at ligand max conc 16, protein and 1-NPN at 2 μM, pH 7.4, read-out: %of max±SE
[13] = DtabGOBP1, 1-NPN fluorescence at ligand max conc 16, protein and 1-NPN at 2 μM, pH 7.4, read-out: %of max±SE
[14] = DtabGOBP2, 1-NPN fluorescence at ligand max conc 16, protein and 1-NPN at 2 μM, pH 7.4, read-out: %of max±SE

T1 sequence (A0A059PCM8 entry or part of it): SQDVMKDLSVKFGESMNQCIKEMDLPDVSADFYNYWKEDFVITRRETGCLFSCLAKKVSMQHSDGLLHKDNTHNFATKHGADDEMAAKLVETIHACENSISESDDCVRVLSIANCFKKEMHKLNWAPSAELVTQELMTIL

Compound | %of max±SE (DtabPBP1 [1]; [7]) | %of max±SE (DtabGOBP1 [2]; [8]) | %of max±SE (DtabGOBP2 [3]; [9]) | activity at 16 µM (DtabPBP1 [1]; [12]) | activity at 16 µM (DtabGOBP1 [2]; [13]) | activity at 16 µM (DtabGOBP2 [3]; [14]) | further results
CC1=CCC2C(C1)C2(C)C (single isomer, unassigned; (+)) [(+)-3-Carene, (+)-3-carene] | 85.3±1.7% | Abnormal | 84.3±0.9% | – | – | – | abnormal fluorescence binding curve (in words) (DtabGOBP1 [2]; DtabGOBP1): increased 1-NPN fluorescence
C=C(C)C1CC=C(C)CC1 (single isomer, unassigned; (+)) [(+)-Limonene, (+)-limonene] | 94.4±0.4% | 78.2±1.1% | 88.0±1.3% | – | – | – | –
c1ccc(Nc2cccc3ccccc23)cc1 [1-NPN] | – | – | – | – | – | – | Kd (DtabPBP1 [4]; [10]): 12.5 ± 1.7 µM; effect of pH on affinity for 1-NPN (in words) (DtabPBP1 [4]; [11]): rapid loss of affinity in acidic conditions; Kd (DtabGOBP1 [5]; [10]): 14.4 ± 2.6 µM; effect of pH on affinity for 1-NPN (in words) (DtabGOBP1 [5]; [11]): rapid loss of affinity in acidic conditions; Kd (DtabGOBP2 [6]; [10]): 8.5 ± 0.6 µM; effect of pH on affinity for 1-NPN (in words) (DtabGOBP2 [6]; [11]): rapid loss of affinity in acidic conditions
CC1=CCC2CC1C2(C)C (stereo not drawn) [(-)-α-Pinene, (−)-α-pinene] | 85.4±0.4% | 96.4±0.3% | 90.8±0.4% | – | – | – | –
C=C1CCC2CC1C2(C)C (stereo not drawn) [(-)-β-Pinene, (−)-β-pinene] | 80.7±0.5% | 82.8±1.0% | 83.2±1.1% | – | – | – | –
CC/C=C\CCO [(Z)-3-Hexen-1-ol, (Z)-3-hexen-1-ol] | – | – | – | – | – | – | activity at 16 µM (DtabPBP1 [1]; pH 7.4, read-out: %of max±SE): 94.6 ± 0.2%; activity at 16 µM (DtabGOBP1 [2]; pH 7.4, read-out: %of max±SE): 96.5 ± 1.4%; activity at 16 µM (DtabGOBP2 [3]; pH 7.4, read-out: %of max±SE): 90.8 ± 0.6%
C=C1C2CCC(C2)C1(C)C (stereo not shown) [Camphene, camphene] | – | – | – | – | – | – | activity at 16 µM (DtabPBP1 [1]; pH 7.4, read-out: %of max±SE): 96.5 ± 0.2%; activity at 16 µM (DtabGOBP1 [2]; pH 7.4, read-out: %of max±SE): 96.7 ± 1.2%; activity at 16 µM (DtabGOBP2 [3]; pH 7.4, read-out: %of max±SE): 93.8 ± 0.7%
C=CC(C)(O)CCC=C(C)C (stereo not shown) [Linalool, linalool] | – | – | – | 90.4 ± 0.7% | 90.4 ± 0.9% | 95.2 ± 0.6% | –
CC1=CCC(=C(C)C)CC1 [Terpinolene, terpinolene] | – | – | – | 90.3 ± 0.2% | 100 ± 3.2% | 85.3 ± 1.8% | –
CCCC/C=C/C=C\CCCCOC(C)=O [Z5,E7-12:OAc, (5Z,7E)-5,7-dodecadien-1-yl acetate] | – | – | – | 74.7 ± 1% | 67.9 ± 1.1% | 66.2 ± 0.3% | –
CCCC/C=C/C=C\CCCCO [Z5,E7-12:OH, (5Z,7E)-5,7-dodecadien-1-ol] | – | – | – | 74.5 ± 0.6% | 81 ± 1% | 65.6 ± 0.8% | –
CCCC/C=C/C=C\CCCCOC(=O)CC [Z5,E7-12:OPr, (5Z,7E)-5,7-dodecadien-1-yl propionate] | – | – | – | 44.5 ± 0.6% | 37.1 ± 0.5% | 44.8 ± 0.7% | Ki (DtabPBP1 [1]; DtabPBP1): 3.61 µM; binding affinity / displacement of 1-NPN (in words) (DtabPBP1 [1]; DtabPBP1): high binding affinities; Kd (DtabPBP1 [1]; DtabPBP1, calculated from IC50 of 1-NPN displacement, read-out: KD±SE): 3.6 ± 0.3 µM; Ki (DtabGOBP1 [2]; DtabGOBP1): 1.9 µM; binding affinity / displacement of 1-NPN (in words) (DtabGOBP1 [2]; DtabGOBP1): high binding affinities; Kd (DtabGOBP1 [2]; DtabGOBP1, calculated from IC50 of 1-NPN displacement, read-out: KD±SE): 1.9 ± 0.2 µM; Ki (DtabGOBP2 [3]; DtabGOBP2): 2.7 µM; binding affinity / displacement of 1-NPN (in words) (DtabGOBP2 [3]; DtabGOBP2): high binding affinities; Kd (DtabGOBP2 [3]; DtabGOBP2, calculated from IC50 of 1-NPN displacement, read-out: KD±SE): 2.7 ± 0.3 µM
CCCCCC/C=C\CCCCOC(C)=O [Z5-12:OAc, (Z)-5-dodecenyl acetate] | Abnormal | Abnormal | – | – | – | 66.6 ± 0.7% | abnormal fluorescence binding curve (in words) (DtabGOBP1 [2]; DtabGOBP1): increase in fluorescence at high concentrations
CCCCCC/C=C\CCCCO [Z5-12:OH, (Z)-5-dodecenyl alcohol] | – | – | – | 75.1 ± 0.2% | 77.2 ± 0.3% | 67 ± 0.5% | –
CC1=CC=C(C(C)C)CC1 [α-Terpinene, α-terpinene] | – | – | – | – | – | – | activity at 16 µM (DtabPBP1 [1]; pH 7.4, read-out: %of max±SE): 86.7 ± 0.7%; activity at 16 µM (DtabGOBP1 [2]; pH 7.4, read-out: %of max±SE): 81.8 ± 1.3%; activity at 16 µM (DtabGOBP2 [3]; pH 7.4, read-out: %of max±SE): 93.2 ± 0.9%
C=CC(=C)CCC=C(C)C [β-Myrene, β-myrene] | 86.5±0.8% | 67.8±0.8% | 83.3±0.7% | – | – | – | 1-NPN displaced (DtabGOBP1 [2]; DtabGOBP1, at a max concentration of ligand): 30%
CC1=CCC(C(C)C)=CC1 [γ-Terpinene, γ-terpinene] | – | – | – | – | – | – | activity at 16 µM (DtabPBP1 [1]; pH 7.4, read-out: %of max±SE): 88.1 ± 0.3%; inhibition at 16 µM (DtabGOBP1 [2]; pH 7.4, read-out: 1-NPN displaced): 30%; activity at 16 µM (DtabGOBP1 [2]; pH 7.4, read-out: %of max±SE): 71.8 ± 0.7%; activity at 16 µM (DtabGOBP2 [3]; pH 7.4, read-out: %of max±SE): 99.3 ± 0.4%
(+)-α-pinene | 83.9±0.3% | 98.3±2.2% | 88.8±2.2% | – | – | – | –
(−)-limonene [(-)-Limonene] | 93.8±0.6% | 80.5±1.1% | 94.1±0.8% | – | – | – | –
